Laboratory results from paper PMC4434051, “Biological evaluation of new potential anticancer agent for tumour imaging and radiotherapy by two methods: ^99mTc-radiolabelling and EPR spectroscopy” (Biotechnology, Biotechnological Equipment, 2014).

Experiments:
[1] = cited from earlier work; for half-life: formerly reported
Lymphoma L1210 = tested on: Lymphoma L1210; design: method as in PMID 19081996, PMID 19718801, PMID 20097958; settings: C57BL/Lymphoma L1210 bearing mice; cited from earlier work
[2] = cited from earlier work
[3] = EPR organ and blood distribution of SLENU after i.p. administration; format: in vivo, male albino non-inbred mice; settings: i.p. 40 mg/kg
Experimental: For EPR experiments of SLENU (administrated i.p. at a dose of 40 mg/kg) blood samples were taken from the free-streaming blood of a male albino non-inbred mice and were collected into heparinized tubes containing PBS (pH = 7–7.4). […] Decay-corrected radioactivity in the blood was expressed as per cent injected dose in the blood, using the total blood volume as 7% of the body weight. Animal protocols have been approved by the Bulgarian/Indian Institutional Animals ethics Committee.
First biodistribution study for EPR experiments of SLENU in organ homogenates (liver, lungs, spleen, pancreas, brain, kidneys) and blood was evaluated in male albino non-inbred mice (35–40 g body weight, normal diet) as previously described by. Spin-labelled nitrosourea was administrated i.p. at a dose of 40 mg/kg. Animals were decapitated at appropriate time points following injection (10, 30, 60, 90 min and on 4 h, 24 h) and dissected. Tissues from lungs, liver, spleen, brain, kidneys, pancreas and blood were collected and processed immediately. For nitrosourea extraction, samples were weighed and homogenized in PBS (10% w/v) and centrifuged at 2000 g for 15 min. Supernatants were collected and the concentration of nitrosourea was evaluated by EPR spectroscopy. Before measuring the spin-labelled concentration, the samples were […] by K3[Fe(CN6)] (a spectroscopic broadening reagent), because of the fast reduction of the nitroxide function (10–20 min) in the tissues.

[4] = cited from earlier work; remark: listed apart in the source

Structure (SMILES)	half-life [1] [h]	optimal dose for anticancer activity (Lymphoma L1210) [mg/kg]	carbamoylating activity ([2]; EPR research)	carbamoylating activity relative to CCNU ([2]; formerly reported)	τ0.5 [1] [min]	time of maximum concentration in blood (EPR) ([3]; blood) [min]	time of maximum concentration in brain (EPR) ([3]; brain homogenate) [min]	time of maximum concentration in kidneys (EPR) ([3]; kidneys homogenate) [min]	time of maximum concentration in liver (EPR) ([3]; liver homogenate) [min]	time of maximum concentration in lungs (EPR) ([3]; lungs homogenate) [min]	time of maximum concentration in pancreas (EPR) ([3]; pancreas homogenate) [min]	time of maximum concentration in spleen (EPR) ([3]; spleen homogenate) [min]	presence of spin-labelled nitrosourea in tissues (EPR) ([3]; within 24 h, all tissues studied)	alkylating activity [4] [A560/mmol/L/h]	alkylating activity relative to CCNU ([4]; formerly reported)
O=NN(CCCl)C(=O)NC1CCCCC1 [CCNU, 1-(2-chloroethyl)-3-cyclohexyl-1-nitrosourea, reference compound]	0.9	–	–	–	–	–	–	–	–	–	–	–	–	–	–
CCN(N=O)C(=O)NC1CC(C)(C)N([O])C(C)(C)C1 [SLENU, 1-ethyl-1-nitroso-3-[4-(2,2,6,6-tetramethylpiperidine-1-oxyl)]-urea]	1.25	45	54.46 ± 0.17	high and comparable with that of CCNU	75	60	60	60	90	30	60	60	complete absence	0.008	lower than that of CCNU
